Data on 25 compounds can be found in patent US6339064B1, “Benzylglycosylamides as inhibitors of smooth muscle cell proliferation” (American Home Products Corporation, priority 1998, dated 2002).

Data set [1] relates to Porcine Smooth Muscle Cell. Put plainly: Effects of compounds on cell proliferation using 3H thymidine incorporation (porcine smooth muscle cell antiproliferation). Format: cell-based. Particulars: for IC50: serum/growth factor stimulated cells, 24-36 h incubation; for Porcine Smooth Muscle Cell Antiproliferation, % at 50 μM: control (100%) = maximally stimulated cells. How it is done:
Effects of Compounds on Cell Proliferation Using ^3H Thymidine Incorporation
Human and porcine smooth muscle cells were tested in early passage (generally passage 3-7) at sub-confluent conditions. Cultures were grown in 16 mm (24 well) multi-well culture dishes in medium 199 supplemented with 10% fetal bovine serum and 2% antibiotic/antimycotic. At sub-confluence, the cells were placed in a defined serum free medium (AIM-V; Gibco) for 24-48 h prior to initiating the experimental protocol.
Compounds were added to each well at 50 fold dilution (20 μL/well) and the plates were incubated for 24-36 h at 37° C. in 5% CO2. Compounds were initially dissolved in 50% ethanol and serially diluted into media. Compounds were routinely evaluated at concentrations from 1 to 100 μM. As a control, grade II porcine intestinal mucosal herapin (sodium salt) was routinely evaluated in all cell preparations at concentrations from 0.1 to 100 μg/mL.
At the completion of the test procedure, plates were placed on ice, washed three times with ice cold phosphate buffered saline (PBS) and incubated in ice cold 10% trichloroacetic acid (TCA) got 30 min to remove acid soluble proteins. Solution was transferred to scintillation vials containing 0.4 N HCl (500 μL/vial to neutralize NaOH) and each well was rinsed two times with water (500 μL) for a total volume of 2 mL/vial.
Data was obtained, in triplicate, for both control and experimental samples. Control (100%) data was obtained from maximally stimulated cells, as the result of growth factor or serum stimulation. Experimental data was obtained from cells maximally stimulated with growth factor or serum and treated with compound. Data are expressed as an IC50 in Table I below.
In general terms: Incorporation of labelled thymidine or its analogues reports DNA synthesis.

`COc1cc(C(=O)N[C@@H]2O[C@H](COC(C)=O)[C@@H](O[C@H]3O[C@H](COC(C)=O)[C@@H](OC(C)=O)[C@H](OC(C)=O)[C@H]3OC(C)=O)[C@H](OC(C)=O)[C@H]2OC(C)=O)ccc1Cl` [Example 22, 4-Chloro-3-methoxy-N-[2,3,6-tri-O-acetyl-4-O-(2,3,4,6-tetra-O-acetyl-α-D-glucopyranosyl)-β-D-glucopyranosyl]benzamide]: the melting point was in the range of 106 to 110 °C. In data set [1] (Sus scrofa), it took 18.5 µM to reach half-maximal inhibition (IC50).

The compound `CC(=O)OC[C@H]1O[C@@H](NC(=O)c2ccc(Cl)c(N)c2)[C@H](OC(C)=O)[C@@H](OC(C)=O)[C@@H]1O[C@H]1O[C@H](COC(C)=O)[C@@H](OC(C)=O)[C@H](OC(C)=O)[C@H]1OC(C)=O` [Example 2, 3-Amino-4-chloro-N-[2,3,6-tri-O-acetyl-4-O-(2,3,4,6-tetra-O-acetyl-α-D-glucopyranosyl)-β-D-glucopyranosyl}-benzamide] yielded a melting point of 115 to 119 °C. The compound also had an IC50 in data set [1] (Sus scrofa) of 11.1 µM.

In turn, `CC(=O)Nc1cc(C(=O)N[C@@H]2O[C@H](COC(C)=O)[C@@H](O[C@H]3O[C@H](COC(C)=O)[C@@H](OC(C)=O)[C@H](OC(C)=O)[C@H]3OC(C)=O)[C@H](OC(C)=O)[C@H]2OC(C)=O)ccc1Cl` [Example 3, 3-(Acetylamino)-4-chloro-N-[2,3,6-tri-O-acetyl-4-O-(2,3,4,6-tetra-O-acetyl-α-D-glucopyranosyl)-β-D-glucopyranosyl}-benzamide] returned a melting point of 122 to 124 °C. Inhibition in data set [1] (Sus scrofa) was half-maximal at 54.3 µM (IC50).

Take `CCCCOc1ccc(C(=O)N[C@@H]2O[C@H](COC(=O)c3ccccc3)[C@@H](O[C@H]3O[C@@H]4COC(c5ccccc5)O[C@H]4[C@H](OC(C)=O)[C@H]3OC(C)=O)[C@H](OC(C)=O)[C@H]2OC(C)=O)cc1Cl` (stereo partly drawn) [Example 21, 4-Butoxy-3-chloro-N-[(2,3,2′,3′-tetra-O-acetyl-6-O-benzoyl-4′,6′-O-benzylidene)-β-D-maltosyl]-benzamide]: 9.8 µM corresponded to half-maximal inhibition in data set [1] (IC50).

In turn, `CC(=O)Nc1cc(C(=O)NC2OC(COC(=O)c3ccccc3)C(OC3OC4COC(c5ccccc5)OC4C(O)C3O)C(O)C2O)ccc1OCCCC#N` [Example 34, 3-Acetylamino-N-(6-O-benzoyl-4′,6′-O-benzylidene-β-D-maltosyl)-4-(4-nitrilo-butoxy)-benzamide] gave an IC50 in data set [1] of 0.98 µM.

`O=C(NC1OC(COC(=O)c2ccccc2)C(OC2OC3COC(c4ccccc4)OC3C(O)C2O)C(O)C1O)c1ccc(Cl)c([N+](=O)[O-])c1` [Example 7, (R)-4-chloro-N-[(6-O-benzoyl-4′,6′-O-benzylidene)-β-D-maltosyl]-3-nitro-benzamide] displayed an IC50 in data set [1] of 0.55 µM.

Consider `O=C(N[C@@H]1O[C@H](CO)[C@@H](O[C@H]2O[C@@H]3COC(c4ccccc4)O[C@H]3[C@H](O)[C@H]2O)[C@H](O)[C@H]1O)c1cccc(C(F)(F)F)c1` (stereo partly drawn) [Example 39, N-(4′,6′-O-Benzylidene-β-D-maltosyl)-3-(trifluoromethyl)-Benzamide], for which the “Porcine Smooth Muscle Cell Antiproliferation, % at 50 μM” value in data set [1] amounted to 15% at 50.

In turn, `CCCCOc1c(Cl)cc(C(=O)NC2OC(COC(C)=O)C(OC3OC(COC(C)=O)C(OC(C)=O)C(OC(C)=O)C3OC(C)=O)C(OC(C)=O)C2OC(C)=O)cc1OC` [Example 25, N-(2,2′,3,3′,4,6,6′-hepta-O-acetyl-β-D-maltosyl]-4-butoxy-5-chloro-3-methoxy-benzamide] showed an IC50 in data set [1] of 2.7 µM.

Regarding `CCCCOc1c(Cl)cc(C(=O)N[C@@H]2O[C@H](COC(C)=O)[C@@H](O[C@H]3O[C@H](COC(C)=O)[C@@H](OC(C)=O)[C@H](OC(C)=O)[C@H]3OC(C)=O)[C@H](OC(C)=O)[C@H]2OC(C)=O)cc1Cl` [Example 49, N-(2,2′,3,3′,4′,6,6′-Hepta-O-acetyl-β-D-maltosyl)-4-butoxy-3,5-dichloro-benzylamide], the IC50 in data set [1] came out at 12.6 µM.

In the case of `CC(=O)OCC1OC(NC(=O)c2ccc(OCCCC#N)c([N+](=O)[O-])c2)C(OC(C)=O)C(OC(C)=O)C1OC1OC(COC(C)=O)C(OC(C)=O)C(OC(C)=O)C1OC(C)=O` (stereo not shown) [Example 28], the “Porcine Smooth Muscle Cell Antiproliferation, % at 50 μM” value in data set [1] is on record as 3% at 50.

For `O=C(N[C@@H]1O[C@H](CO)[C@@H](O[C@H]2O[C@@H]3COC(c4ccccc4)O[C@H]3[C@H](O)[C@H]2O)[C@H](O)[C@H]1O)c1ccc(Cl)cc1` (stereo partly drawn) [Example 11, N-(4′,6′-O-Benzylidene-β-D-maltosyl)-4-chloro-benzamide], the “Porcine Smooth Muscle Cell Antiproliferation, % at 50 μM” value in data set [1] was 15% at 50.

Turning to `CC(=O)Nc1cc(C(=O)NC2OC(COC(=O)c3ccccc3)C(OC3OC4COC(c5ccccc5)OC4C(O)C3OC(C)=O)C(O)C2OC(C)=O)ccc1Cl` [Example 9, (R)-N-[2-O-Acetyl-4-O-[2-O-acetyl-4,6-O-(phenylmethylene)-α-D-glucopyranosyl]-6-O-benzoyl-β-D-glucopyranosyl]-3-(acetylamino)-4-chlorobenzamide], in data set [1], the IC50 is 1.25 µM.

In the case of `O=C(NC1OC(COC(=O)c2ccccc2)C(OC2OC3COC(c4ccccc4)OC3C(O)C2O)C(O)C1O)c1cccc(C(F)(F)F)c1` [Example 40, N-[{6-O-Benzoyl-4′,6′-O-benzylidene}-β-D-maltosyl]-3-(trifluoromethyl)-benzamide], half-maximal inhibition in data set [1] (IC50) was put at 7.15 µM.

In data set [1], `COc1cc(C(=O)NC2OC(COC(=O)c3ccccc3)C(OC3OC4COC(c5ccccc5)OC4C(O)C3O)C(O)C2O)ccc1Cl` [Example 24, N-(6-O-Benzoyl-4′,6′-O-benzylidene-β-D-maltosyl)-4-chloro-3-methoxy-benzamide] showed an IC50 of 2 µM.

Take `CCCCOc1ccc(C(=O)NC2OC(CO)C(OC3OC4COC(c5ccccc5)OC4C(O)C3O)C(O)C2O)cc1Cl.O` [Example 19, 4-Butoxy-3-chloro-N-[(4′,6′-O-benzylidene)-β-D-maltosyl]-benzamide hydrate]: the “Porcine Smooth Muscle Cell Antiproliferation, % at 50 μM” value in data set [1] is listed as 35% at 50.

`CCCCOc1ccc(C(=O)N[C@@H]2O[C@H](COC(C)=O)[C@@H](O[C@H]3O[C@H](COC(C)=O)[C@@H](OC(C)=O)[C@H](OC(C)=O)[C@H]3OC(C)=O)[C@H](OC(C)=O)[C@H]2OC(C)=O)cc1Cl` [Example 18, 4-butoxy-3-chloro-N-[2,3,6-tri-O-acetyl-4-O-(2,3,4,6-tetra-O-acetyl-α-D-glucopyranosyl)-β-D-glucopyranosyl]benzamide] returned an IC50 in data set [1] (Sus scrofa) of 3.5 µM.

The compound `CC(=O)OC[C@H]1O[C@H](NC(=O)c2ccc(OCCCC#N)c(Cl)c2)[C@H](OC(C)=O)[C@@H](OC(C)=O)[C@@H]1O[C@H]1O[C@H](COC(C)=O)[C@@H](OC(C)=O)[C@H](OC(C)=O)[C@H]1OC(C)=O` [Example 14] came in with an IC50 in data set [1] of 51.3 µM.

Regarding `CC(=O)OC[C@H]1O[C@@H](NC(=O)c2ccc(OCCCC#N)c(N)c2)[C@H](OC(C)=O)[C@@H](OC(C)=O)[C@@H]1O[C@H]1O[C@H](COC(C)=O)[C@@H](OC(C)=O)[C@H](OC(C)=O)[C@H]1OC(C)=O` [Example 32], in data set [1], the “Porcine Smooth Muscle Cell Antiproliferation, % at 50 μM” value is 10% at 50.

Consider `N#CCCCOc1ccc(C(=O)NC2OC(CO)C(OC3OC4COC(c5ccccc5)OC4C(O)C3O)C(O)C2O)cc1[N+](=O)[O-]` [Example 29, N-(4′,6′-O-Benzylidene-β-D-maltosyl)-4-(4-nitrilo-butoxy)-3-nitro-benzamide], for which the “Porcine Smooth Muscle Cell Antiproliferation, % at 50 μM” value in data set [1] is recorded as 4% at 50.

In turn, `CC(=O)OC[C@H]1O[C@@H](NC(=O)c2ccc(Cl)cc2)[C@H](OC(C)=O)[C@@H](OC(C)=O)[C@@H]1O[C@H]1O[C@H](COC(C)=O)[C@@H](OC(C)=O)[C@H](OC(C)=O)[C@H]1OC(C)=O` [Example 10, N-(Hepta-O-acetyl-β-D-maltosyl)-4-chloro-benzamide] yielded an IC50 in data set [1] of 36.6 µM.

In turn, `CCCCOc1c(Cl)cc(C(=O)N[C@@H]2O[C@H](CO)[C@@H](O[C@H]3O[C@H](CO)[C@@H](O)[C@H](O)[C@H]3O)[C@H](O)[C@H]2O)cc1Cl` [Example 42, 4-Butoxy-3,5-dichloro-N-β-D-maltosyl-benzamide] gave a concentration for half-maximal inhibition (IC50) in data set [1] of 28.9 µM.

Consider `COc1ccc(CC(=O)NC2OC(CO)C(OC3OC4COC(c5ccccc5)OC4C(O)C3O)C(O)C2O)cc1OC` [Example 46, N-(4′,6′-Benzylidene-β-D-maltosyl)-2-(3,4-dimethoxy-phenyl)-acetamide], for which the “Porcine Smooth Muscle Cell Antiproliferation, % at 50 μM” value in data set [1] came out at 0% at 50.

With `CC(=O)OC1C(NC(=O)c2ccc(OCCCC#N)c([N+](=O)[O-])c2)OC(COC(=O)c2ccccc2)C(OC2OC3COC(c4ccccc4)OC3C(OC(C)=O)C2OC(C)=O)C1OC(C)=O` [Example 31, N-(2,2′,3,3′-tetra-O-Acetyl-6-O-benzoyl-4′,6′-O-benzylidene-β-D-maltosyl)-4-(4-nitrilo-butoxy)-3-nitro-benzamide], in data set [1], the “Porcine Smooth Muscle Cell Antiproliferation, % at 50 μM” value stood at 15% at 50.

In the case of `CC(=O)Nc1cc(C(=O)N[C@@H]2O[C@H](COC(C)=O)[C@@H](O[C@H]3O[C@H](COC(C)=O)[C@@H](OC(C)=O)[C@H](OC(C)=O)[C@H]3OC(C)=O)[C@H](OC(C)=O)[C@H]2OC(C)=O)ccc1OCCCC#N` [Example 33], the “Porcine Smooth Muscle Cell Antiproliferation, % at 50 μM” value in data set [1] came to 0% at 50.

For the compound `CCCCOc1c(Cl)cc(C(=O)NC2OC(COC(=O)c3ccccc3)C(OC3OC4COC(c5ccccc5)OC4C(O)C3O)C(O)C2O)cc1OC` [Example 27, N[(6-O-benzoyloxy-4′,6′-O-benzylidene)-β-D-maltosyl]-4-butoxy-3-chloro-5-methoxy-benzamide], the “Porcine Smooth Muscle Cell Antiproliferation, % at 50 μM” value in data set [1] worked out at 45% at 50.

A word on the melting point: it is the temperature of the solid-liquid transition. What is called IC50 is the concentration that gives 50% inhibition.
